Counter-ions that a name gives are not always drawn. Where only a bound is given, the exact number is not on record here.

The assay addresses T1, Arginase (ARG1 enzyme) (Homo sapiens, UniProt P05089).
T1 construct: made in house; host or cells: Escherichia coli
T1 sequence (P05089 1-322): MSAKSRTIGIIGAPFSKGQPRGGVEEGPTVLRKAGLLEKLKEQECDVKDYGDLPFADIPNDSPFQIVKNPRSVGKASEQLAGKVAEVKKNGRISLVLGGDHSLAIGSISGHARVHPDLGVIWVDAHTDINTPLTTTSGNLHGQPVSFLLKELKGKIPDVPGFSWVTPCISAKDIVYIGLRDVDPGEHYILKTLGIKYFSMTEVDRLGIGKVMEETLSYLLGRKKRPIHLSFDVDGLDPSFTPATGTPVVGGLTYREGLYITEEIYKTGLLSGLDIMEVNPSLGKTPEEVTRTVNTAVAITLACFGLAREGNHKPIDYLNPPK
Put plainly: Arginase Thioornithine Generating Assay (TOGA). The assay is classed as biochemical. The note with it: 1.88 nM arginase, thioarginine substrate, fluorescence readout. As for the experimental part: Arginase Thioornithine Generating Assay (TOGA)
Compounds were serially diluted in ten 3-fold steps in DMSO starting from 10 mM DMSO stocks. Compound dilutions or DMSO alone were then dispensed from the dilution plate into a Greiner black 384-well assay plate (catalog #781086) using an Echo 555 acoustic liquid handler (Labcyte).
Arginase protein was recombinantly expressed in Escherichia coli. Purified protein was then diluted in assay buffer (50 mM Tris pH 7.5, 50 mM NaCl, 1 mM manganese chloride, 0.05% bovine serum albumin to obtain a final Arginase concentration of 1.88 nM. Arginase solution (20 μL) or buffer alone (20 μL) were dispensed to wells of the assay plate using a BioRAPTR liquid dispenser (Beckman Coulter). Assay plates containing compound and ARG1 enzyme were incubated at room temperature for 30 minutes. Afterwards, 5 μL of 2.5 mM thioarginine (Cayman Chemicals) in assay buffer were added to each well of the assay plate using a BioRAPTR liquid dispenser. Plates were incubated at room temperature for 60 minutes and reactions were quenched by addition of 15 μL of […] 7-Diethylamine-3-(4-maleimidophenyl)-4-methylcoumarin (Sigma Chemical) in 70% ethanol. Plates were briefly shaken to mix and the fluorescence was measured in an Spectramax plate reader (Molecular Devices) with a 410 nm excitation wavelength and an 490 nm emission wavelength.
Potencies were calculated by […] to the four parameter logistic IC50 equation.
By IC50 is commonly meant the point on the concentration scale where inhibition reaches its midpoint. Low values mean inhibition by little substance, high ones a need for much substance. Turning to `CC(C)(C)[C@H](N)C(=O)N[C@H]1CN[C@H](C(=O)O)[C@@H]1CCCB(O)O` [Example 38, (2S,3R,4R)-4-((S)-2-amino-3,3-dimethylbutanamido)-3-(3-boronopropyl)pyrrolidine-2-carboxylic acid], inhibition was half-maximal at 0.818 nM (IC50).
The molecule `CC(C)[C@](C)(N)C(=O)N[C@H]1CN[C@H](C(=O)O)[C@@H]1CCCB(O)O` [Example 47, (2S,3R,4R)-4-((S)-2-amino-2,3-dimethylbutanamido)-3-(3-boronopropyl)pyrrolidine-2-carboxylic acid] displayed a half-maximal inhibitory concentration (IC50) of 29 nM.
`O=C(O)[C@H]1NC[C@H](O)[C@@]1(F)CCCB(O)O` [Example 92B, (2R,3R,4S)-3-(3-boronopropyl)-3-fluoro-4-hydroxypyrrolidine-2-carboxylic acid] yielded an IC50 of 124 nM.
As for `O=C(O)[C@H]1NCCC[C@@H]1CCCB(O)O` (single isomer, unassigned) [Example 1D], inhibition was half-maximal at 22800 nM (IC50).
For the molecule `O=C(O)C1(CCN2CCCCC2)CC(CCB(O)O)CCN1` (stereo not drawn) [Example 5, 4-[2-(dihydroxyboranyl)ethyl]-2-[2-(piperidin-1-yl)ethyl]piperidinyl-2-carboxylic acid], the IC50 turned out to be 1330 nM.
As for `CO[C@H]1CN[C@H](C(=O)O)[C@@H]1CCCB(O)O` [Example 36, (2S,3S,4R)-3-(3-boronopropyl)-4-methoxypyrrolidine-2-carboxylic acid], the IC50 is 46.1 nM.
`O=C(O)[C@H]1NCC(CO)[C@H]1CCCB(O)O` (stereo partly drawn) [Example 91, (2S,3R)-3-(3-boronopropyl)-4-(hydroxymethyl)pyrrolidine-2-carboxylic acid] yielded an IC50 of 20 nM.
`CNC[C@@H]1C[C@@H](CCCB(O)O)[C@@H](C(=O)O)N1` [Example 62, (2S,3R,5S)-3-(3-boronopropyl)-5-((methylamino)methyl)pyrrolidine-2-carboxylic acid] returned a 50% inhibitory concentration (IC50) of 34.9 nM.
Molecule `O=C(O)[C@H]1NC[C@@H](O)[C@@H]1CCCB(O)O` (single isomer, unassigned) [Example 20A] registered a half-inhibitory concentration (IC50) of 475 nM.
In turn, `NC1CN[C@H](C(=O)O)C1CCCB(O)O` (single isomer, unassigned) [Example 33B] returned a concentration for half-maximal inhibition (IC50) greater than 10000 nM.
For the molecule `C[C@@]1(CCCB(O)O)[C@@H](CN)CN[C@@H]1C(=O)O` [Example 77, (2S,3R,4S)-4-(aminomethyl)-3-(3-boronopropyl)-3-methylpyrrolidine-2-carboxylic acid], the midpoint of inhibition, the IC50, lay at 85 nM.
The result for `O=C(O)[C@H]1NCCO[C@H]1CCCB(O)O` [Example 52, (2S,3S)-2-(3-boronopropyl)morpholine-3-carboxylic acid] reads 211 nM.
Turning to `NCC1CN[C@H](C(=O)O)C1CCCB(O)O` (stereo partly drawn) [Example 34, (2S)-4-(aminomethyl)-3-(3-boronopropyl)pyrrolidine-2-carboxylic acid], the IC50 was 3450 nM.
In the case of `O=C(O)C1(CCN2CCCCC2)NCCC1CCCB(O)O` (stereo not drawn) [Example 11, 3-(3-boronopropyl)-2-(2-(piperidin-1-yl)ethyl)pyrrolidine-2-carboxylic acid], the midpoint of inhibition, the IC50, lay at 84 nM.
In turn, `CC(C)[C@@H](N)C(=O)N[C@H]1CN[C@H](C(=O)O)[C@@H]1CCCB(O)O` [Example 46, (2S,3R,4R)-4-((R)-2-amino-3-methylbutanamido)-3-(3-boronopropyl)pyrrolidine-2-carboxylic acid] registered an IC50 of 35.4 nM.
`CN1C[C@@](CO)(CCCB(O)O)[C@H]1C(=O)O` [Example 66, (2S,3S)-3-(3-boronopropyl)-3-(hydroxymethyl)-1-methylazetidine-2-carboxylic acid] showed a half-inhibitory concentration (IC50) of 269 nM.
The same measure for `NCC1(C(=O)O)CCC(CCB(O)O)C1` (mixture of isomers) [Example 95, 1-(aminomethyl)-3-(2-boronoethyl)cyclopentane-1-carboxylic acid]: greater than 10000 nM; for `C[C@H](N)C(=O)N[C@H]1CN[C@H](C(=O)O)[C@@H]1CCCB(O)O` [Example 41, (2S,3R,4R)-4-((S)-2-aminopropanamido)-3-(3-boronopropyl)pyrrolidine-2-carboxylic acid]: 13.6 nM.
`O=C(O)[C@@]1(CCO)NCC[C@H]1CCCB(O)O` [Example 53, (2S,3R)-3-(3-boronopropyl)-2-(2-hydroxyethyl)pyrrolidine-2-carboxylic acid] gave a concentration for half-maximal inhibition (IC50) of 1480 nM.
Turning to `O=C(O)C1CNCC1CCCB(O)O` (single isomer, unassigned) [Example 21B, 4-[3-(dihydroxyboranyl)propyl]pyrrolidine-3-carboxylic acid], the IC50 stood at 602 nM.
`C[C@]1(CCCB(O)O)[C@@H](C(=O)O)NC[C@@H]1N` [Example 71, (2S,3R,4R)-4-amino-3-(3-boronopropyl)-3-methylpyrrolidine-2-carboxylic acid] came in with an IC50 of 17 nM.
`O=C(O)C1CNCCC1CCCB(O)O` (stereo not drawn) [Example 6, 4-[3-(dihydroxyboranyl)propyl]piperidinyl-3-carboxylic acid] displayed an IC50 of 57500 nM.
On to `O=C(O)[C@H]1NCC[C@H]1CCCB(O)O` (single isomer, unassigned) [Example 9A], for which inhibition was half-maximal at 18 nM (IC50).
Molecule `NC[C@]1(C(=O)O)NCC[C@H]1CCCB(O)O` (single isomer, unassigned) [Example 57B] showed a half-inhibitory concentration (IC50) of 5710 nM.
Regarding `O=C(O)[C@H]1NCC[C@H]1SCCB(O)O` [Example 93, (2R,3R)-3-((2-boronoethyl)thio)pyrrolidine-2-carboxylic acid hydrochloride], the IC50 was found to be 92.1 nM.
In the case of `O=C(O)[C@H]1NC[C@H](NCC(F)F)[C@H]1CCCB(O)O` [Example 27, (2S,3R,4R)-3-(3-boronopropyl)-4-((2,2-difluoroethyl)amino)pyrrolidine-2-carboxylic acid], the half-inhibitory concentration (IC50) stood at 128 nM.
For the molecule `O=C(O)[C@@H]1NCCC[C@@H]1CCCB(O)O` (single isomer, unassigned) [Example 1A], the IC50 came to 3660 nM.
In the case of `NC1CN[C@H](C(=O)O)C1CCCB(O)O` (single isomer, unassigned) [Example 33A], the IC50 was greater than 10000 nM.
In turn, `C[C@]1(C(=O)O)NCC[C@H]1CCCB(O)O` [Example 16A, (3R)-3-[3-(dihydroxyboranyl)propyl]-2-methyl-L-proline] displayed an IC50 of 70 nM.
`CC1(C)[C@H]2C[C@@H]3OB(CCC[C@]4(C)CCN[C@@H]4C(=O)O)O[C@]3(C)[C@@H]1C2` [Example 22, (2S,3R)-3-methyl-3-(3-((3aR,4R,6R,7aS)-3a,5,5-trimethylhexahydro-4,6-methanobenzo[d][1,3,2]dioxaborol-2-yl)propyl)pyrrolidine-2-carboxylic acid]: the concentration for half-maximal inhibition (IC50) is 151 nM.
With `CN(C)C[C@@H]1C[C@@H](CCCB(O)O)[C@@H](C(=O)O)N1` [Example 61, (2S,3R,5S)-3-(3-boronopropyl)-5-((dimethylamino)methyl)pyrrolidine-2-carboxylic acid], the IC50 came to 439 nM.
For `N[C@]1(C(=O)O)CNC[C@]1(CO)CCCB(O)O` [Example 94D], the half-maximal inhibitory concentration (IC50) is greater than 10000 nM.
Take `O=C(O)[C@H]1NC[C@H](O)[C@@H]1CCCB(O)O` [Example 82, (2S,3R,4R)-3-(3-boronopropyl)-4-hydroxypyrrolidine-2-carboxylic acid]: the IC50 was greater than 10000 nM.
The result for `C[C@@]1(CCCB(O)O)CCN[C@@H]1C(=O)O` [Example 14, (3R)-3-[3-(dihydroxyboranyl)propyl]-3-methyl-L-proline] reads 16 nM.
The result for `O=C(O)[C@H]1NC[C@H]1CCCB(O)O` [Example 8B, (2S,3R)-3-[3-(dihydroxyboranyl)propyl]azetidine-2-carboxylic acid] reads 447 nM; that for `CC1CC(CCCB(O)O)[C@@H](C(=O)O)N1` (stereo partly drawn) [Example 17, 3-[3-(dihydroxyboranyl)propyl]-5-methylproline], greater than 10000 nM; that for `CC[C@@H](C)[C@H](N)C(=O)N[C@H]1CN[C@H](C(=O)O)[C@@H]1CCCB(O)O` [Example 44, (2S,3R,4R)-4-((2S,3R)-2-amino-3-methylpentanamido)-3-(3-boronopropyl)pyrrolidine-2-carboxylic acid], 2 nM.
Molecule `CC1(C)[C@H]2C[C@@H]3OB(CCC[C@@H]4CCN[C@@H]4C(=O)O)O[C@]3(C)[C@@H]1C2` [Example 13, (3R)-3-{3-[(3aR,4R,6R,7aS)-3a,5,5-trimethylhexahydro-4,6-methano-1,3,2-benzodioxaborol-2-yl]propyl}-L-proline] yielded an IC50 of 30 nM.
With `C[C@]1(CCCB(O)O)[C@@H](C(=O)O)NC[C@@H]1C(F)F` [Example 81, (2S,3R,4R)-3-(3-boronopropyl)-4-(difluoromethyl)-3-methylpyrrolidine-2-carboxylic acid], inhibition was half-maximal at 139 nM (IC50).

(Values after patent publication US12215116B2, “Arginase inhibitors and methods of use” (Merck Sharp & Dohme LLC, priority 2018, dated 2025).)
